Entries after “also recorded” stand apart in the source; their conditions may differ.
Columns and labels:
[1] = molecular target: T1, chymotrypsin (Bos taurus, UniProt P00766); experiment: Chymotrypsin inhibition assay; type: biochemical; settings: highest concentration 45 µg mL^−1
T1 construct: purchased Sigma Aldrich
Procedure: (§1) The enzyme inhibitory activity of fractions and AER525 was tested against trypsin [55], chymotrypsin [56], thrombin [56], elastase, and carboxypeptidase A [56]. For full details on trypsin, chymotrypsin, thrombin, and elastase inhibition assay refer to the work of Overlingė et al.. In the carboxypeptidase A assay, the final concentration of the enzyme was 1.6 µM, N-(4-methoxy-phenyl-azoformyl)-Phe-OH (GLPBIO Technology LLC; Montclair, CA, USA) at a concentration of 0.2 mg mL^−1 served as a substrate, and the carboxypeptidase inhibitor from potato tuber was used at a concentration range of 2.5–150 µg mL^−1. Mixtures containing the sample (10 µL) or inhibitor (10 µL) were preincubated with the enzyme (10 µL) and buffer (160 µL; 50 mM Tris-HCl at pH 7.5) at 25 °C. After 10 min, the substrate (20 µL) was added, and the reaction mixture was incubated for another 10 min at 25 °C. The absorbance of the solutions was measured at 350 nm with the application of a microplate reader (Varioskan Flash, Thermo Fisher Scientific OY, Vantaa, Finland). All enzymes were from Sigma Aldrich (St. Louis, MO, USA); 1% v/v DMSO was used to dissolve fractions at final concentrations of 45 µg mL^−1, while for pure AER525, it was additionally serially diluted to 45, 4.5, 0.45, and 0.045 µg mL^−1. […]

[2] = molecular target: T2, thrombin (Homo sapiens, UniProt P00734); experiment: Thrombin inhibition assay; type: biochemical
T2 construct: purchased Sigma Aldrich
Procedure: as §1

[3] = test system: elastase; experiment: Elastase inhibition assay; type: biochemical; settings: highest concentration 45 µg mL^−1
Procedure: as §1

[4] = ref [10],[11]; cited from earlier work
Text: (§2) In addition to the nutritional properties of Aphanizomenon, assessed mainly based on the analyses of extracts, there are several studies showing that the cyanobacterium produces metabolites of significant biological activities.

[5] = test system: human cytosolic enzyme which is involved both in tumor progression and phytochemical bioavailability; settings: ref [12]; cited from earlier work
Text: as §2

Row | Compound | activity against chymotrypsin (in words) [1] | activity against thrombin (in words) [2] | potency of thrombin inhibition, AER525 compared with dysinosin D (in words) [2] | activity against elastase (in words) [3] | Elastase enzyme inhibition (IC50) ([3]; triplicates) | alleviating depression and anxiety symptoms (in words) [4] | inhibition of the human cytosolic enzyme (in words) [5]
1 | CC(C)C[C@@H](NC(=O)[C@@H](N)CO)C(=O)N1[C@H](C(=O)N[C@H](C=O)CCCNC(=N)N)C[C@@H]2CC[C@@H](O)C[C@@H]21 [AER525] | no effect | potent activity; also recorded: strong thrombin-inhibitory activity | comparable potency | no effect; also recorded: No activity | - (not active (inhibition below 10%)) |  | 
2 | NCCc1ccccc1 [β-phenylethylamine] |  |  |  |  |  | showed effectiveness in alleviating depression and anxiety symptoms | acted as inhibitors
3 | phycocyanobilin |  |  |  |  |  | showed effectiveness in alleviating depression and anxiety symptoms | acted as inhibitors
